Molecules are shown by their SMILES.

This test addresses T1, IRAK4 (Homo sapiens, UniProt Q9NWZ3).
T1 construct: purchased CARNA Bioscience 09-145
T1 sequence (Q9NWZ3 1-460): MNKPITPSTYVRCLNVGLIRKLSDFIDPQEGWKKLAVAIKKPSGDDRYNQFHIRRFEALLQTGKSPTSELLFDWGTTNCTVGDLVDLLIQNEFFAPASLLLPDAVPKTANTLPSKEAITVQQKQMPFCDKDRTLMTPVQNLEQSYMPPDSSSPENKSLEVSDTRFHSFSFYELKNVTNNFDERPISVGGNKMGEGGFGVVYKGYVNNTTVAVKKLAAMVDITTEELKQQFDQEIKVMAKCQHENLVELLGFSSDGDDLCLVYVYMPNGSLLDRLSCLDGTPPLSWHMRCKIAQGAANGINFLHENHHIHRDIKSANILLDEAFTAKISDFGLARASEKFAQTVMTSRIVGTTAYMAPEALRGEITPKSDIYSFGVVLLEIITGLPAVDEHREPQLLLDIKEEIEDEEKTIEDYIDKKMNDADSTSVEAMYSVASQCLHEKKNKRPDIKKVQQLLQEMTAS
The test can be described thus: IRAK-4 activity inhibition assay (Caliper). The test is classed as biochemical. The following applies: 3.5 nM IRAK4, 37 μM ATP, 1.5 μM Peptide 8. The procedure:
A 1× kinase base buffer was prepared from 50 mM HEPES, pH 7.5 and 0.0015% Brij-35. A stop buffer was prepared from 100 mM HEPES, pH 7.5, 0.015% Brij-35, 0.2% Coating Reagent #3, and 50 mM EDTA.
Test compound was diluted to 50× of the final desired highest inhibitor concentration in reaction by 100% DMSO. 100 ul of this compound dilution was transferred to a well in a 96-well plate. For example, if desired highest inhibitor concentration in IC50 determination is 100 uM, then prepare 5000 uM of compound DMSO solution in this step.
Test compound was serially diluted by transferring 30 μl to 60 μl of 100% DMSO in the next well and so forth for a total of 10 concentrations. 100 μl of 100% DMSO was added to two empty wells for no compound control and no enzyme control in the same 96-well plate.
A new 96-well plate was marked as intermediate plate. 5 μl of compound serial dilution was transferred from source plate to the corresponding wells of the intermediate plate. 45 μl of 1× kinase base buffer (KB buffer) was added to each well of the intermediate plate. The intermediate plate was placed for 10 min on a shaker.
5 μl of each well was transferred from the 96-well intermediate plate to a 384-well plate in duplicates. For example, A1 of the 96-well plate is transferred to A1 and A2 of the 384-well plate. A2 of the 96-well plate is transferred to A3 and A4 of the 384-well plate, and so on.
IRAK4 and DTT in 1× kinase base buffer was added. The 2.5× enzyme mix contained 8.8 nM IRAK4 and 5 mM DTT.
Peptide 8, ATP, MgCl2 and MnCl2 were added in the 1× kinase base buffer. The 2.5× peptide mix contained 3.75 μM peptide 8, 92.5 μM ATP, 12.5 mM MgCl2 and 2.5 mM MnCl2.
Assay plate already contained 5 μl of compound in 10% DMSO. Added 10 μl of 2.5× enzyme solution to each well of the 384-well assay plate, except no enzyme control wells. The final concentration of IRAK4 in reaction was 3.5 nM. Added 10 μl of 1× kinase base buffer to no enzyme control wells in the assay plate. Incubated at room temperature for 10 min.
Added 10 μl of 2.5× peptide solution to each well of the 384-well assay plate. The final concentration of Peptide 8 and ATP was 1.5 μM and 37 μM, respectively. Incubated at 28° C. for 40 minutes. Added 25 μl of stop buffer to stop reaction. Collected data on Caliper.
Copied conversion % data from Caliper program. Converted conversion % values to percent inhibition values. Percent inhibition=(max-conversion %)/(max-min)*100, where “max” means the conversion % of DMSO control and “min” means the conversion % of no enzyme control.
The compound numbers correspond to the compound numbers in Table 1. Compounds having an activity designated as “A” provided an IC50≦1 μM; compounds having an activity designated as “B” provided an IC50 of 1-5 μM; compounds having an activity designated as “C” provided an IC50 of ≧5 μM. “NA” stands for “not assayed.”
Usually IC50 stands for the midpoint of a concentration-inhibition curve. `OCCn1cc(Nc2nc(N[C@H]3CC[C@H](N4CCOCC4)CC3)c3ncsc3n2)cn1` [Compound I-54, 2-(4-((7-(((1r,4r)-4-morpholinocyclohexyl)amino)thiazolo[5,4-d]pyrimidin-5-yl)amino)-1H-pyrazol-1-yl)ethan-1-ol]: the IC50 is at most 1000 nM.

`Cn1cc(Nc2nc(N[C@H]3CC[C@H](N4CCOCC4)CC3)c3nc(C(C)(C)C)sc3n2)cn1` [Compound I-50, 2-(tert-butyl)-N5-(1-methyl-1H-pyrazol-4-yl)-N7-((1r,4r)-4-morpholinocyclohexyl)thiazolo[5,4-d]pyrimidine-5,7-diamine]: the IC50 is 1000 to 5000 nM.

Take `Cn1cc(Nc2nc(N[C@H]3CC[C@H](N4CCOCC4)CC3)c3nc(C(F)(F)F)sc3n2)cn1` [Compound I-44, N5-(1-methyl-1H-pyrazol-4-yl)-N7-((1r,4r)-4-morpholino-cyclohexyl)-2-(trifluoromethyl)thiazolo[5,4-d]pyrimidine-5,7-diamine]: the IC50 was at most 1000 nM.

Compound `CCc1nc2c(O[C@H]3CC[C@H](N(C)C)CC3)ncnc2s1` [Compound I-3, (1r,4r)-4-((2-ethylthiazolo[5,4-d]pyrimidin-7-yl)oxy)-N,N-dimethylcyclo-hexanamine] had an IC50 of at least 5000 nM.

Regarding `Cn1cc(Nc2nc(N[C@H]3CC[C@H](N4CCOCC4)CC3)c3nc(C(F)F)sc3n2)cn1` [Compound I-45, 2-(difluoromethyl)-N5-(1-methyl-1H-pyrazol-4-yl)-N7-((1r,4r)-4-morpholinocyclohexyl)thiazolo[5,4-d]pyrimidine-5,7-diamine], the IC50 is at most 1000 nM.

As for `CC(C)c1nc2c(N[C@H]3CC[C@H](N(C)C)CC3)ncnc2s1` [Compound I-2, (1r,4r)-N-1-(2-isopropylthiazolo[5,4-d]pyrimidin-7-yl)-N4,N4-dimethylcyclohexane-1,4-diamine], the IC50 fell in the range of 1000 to 5000 nM.

In the case of `Cc1nc2c(O[C@H]3CC[C@H](N4CCOCC4)CC3)nc(Nc3cnn(C(C)C)c3)nc2s1` [Compound I-57, N-(1-isopropyl-1H-pyrazol-4-yl)-2-methyl-7-(((1r,4r)-4-morpholino-cyclohexyl)oxy)thiazolo[5,4-d]pyrimidin-5-amine], the IC50 is at most 1000 nM.

As to `CCc1nc2c(N[C@H]3CC[C@H](N4CCOCC4)CC3)nc(N)nc2s1` [Compound I-31, 2-ethyl-N7-((1r,4r)-4-morpholinocyclohexyl)thiazolo[5,4-d]pyrimidine-5,7-diamine], the IC50 was at least 5000 nM.

For `CCc1nc2c(N[C@H]3CC[C@H](N4CCOCC4)CC3)ncnc2s1` [Compound I-5, 2-ethyl-N-((1r,4r)-4-morpholinocyclohexyl)thiazolo[5,4-d]pyrimidin-7-amine], the IC50 is 1000 to 5000 nM.

On to `Cn1cc(Nc2nc(N[C@H]3CC[C@H](N4CCOCC4)CC3)c3ncsc3n2)cn1` [Compound I-46, N5-(1-methyl-1H-pyrazol-4-yl)-N7-((1r,4r)-4-morpholinocyclo-hexyl)thiazolo[5,4-d]pyrimidine-5,7-diamine], for which the concentration for half-maximal inhibition (IC50) was at most 1000 nM.

As for `CCc1nc2c(N[C@H]3CC[C@H](N4CCC(F)(F)CC4)CC3)nc(Nc3cnn(C)c3)nc2s1` [Compound I-11, N7-((1r,4r)-4-(4,4-difluoropiperidin-1-yl)cyclohexyl)-2-ethyl-N5-(1-methyl-1H-pyrazol-4-yl)thiazolo[5,4-d]pyrimidine-5,7-diamine], the IC50 lay within 1000 to 5000 nM.

On to `CCc1nsc2ncnc(N[C@H]3CC[C@H](N4CCOCC4)CC3)c12` [Compound I-20, 3-ethyl-N-((1r,4r)-4-morpholinocyclohexyl)isothiazolo[5,4-d]pyrimidin-4-amine], for which the IC50 was 1000 to 5000 nM.

With `CCc1nc2c(N[C@H]3CC[C@H](N(C)C)CC3)ncnc2s1` [Compound I-1, (1r,4r)-N1-(2-ethylthiazolo[5,4-d]pyrimidin-7-yl)-N4,N4-dimethylcyclohexane-1,4-diamine], the IC50 was in the range of 1000 to 5000 nM.

`c1nc2c(N[C@H]3CC[C@H](N4CCOCC4)CC3)nc(Nc3cnn(C4CCOCC4)c3)nc2s1` [Compound I-51, N7-((1r,4r)-4-morpholinocyclohexyl)-N5-(1-(tetrahydro-2H-pyran-4-yl)-1H-pyrazol-4-yl)thiazolo[5,4-d]pyrimidine-5,7-diamine] yielded an IC50 of at most 1000 nM.

`CCc1nc2c(N(CC)[C@H]3CC[C@H](N4CCOCC4)CC3)ncnc2s1` [Compound I-6, N,2-diethyl-N-((1r,4r)-4-morpholinocyclohexyl)thiazolo[5,4-d]pyrimidin-7-amine] gave an IC50 of at least 5000 nM.

`CC(=O)c1nc2c(N[C@H]3CC[C@H](N4CCOCC4)CC3)nc(Nc3cnn(C)c3)nc2s1` [Compound I-41, 1-(5-((1-methyl-1H-pyrazol-4-yl)amino)-7-(((1r,4r)-4-morpholinocyclohexyl)amino)thiazolo[5,4-d]pyrimidin-2-yl)ethan-1-one] showed an IC50 of at most 1000 nM.

In the case of `CCc1nc2c(N[C@H]3CC[C@H](N(C)CC(=O)N4CCCC4)CC3)nc(Nc3cnn(C)c3)nc2s1` [Compound I-15, 2-(((1r,4r)-4-((2-ethyl-5-((1-methyl-1H-pyrazol-4-yl)amino)-thiazolo[5,4-d]pyrimidin-7-yl)amino)cyclohexyl)(methyl)amino)-1-(pyrrolidin-1-yl)ethan-1-one], the IC50 was at most 1000 nM.

The compound `[2H]C([2H])([2H])c1nc2c(N[C@H]3CC[C@H](N4CCOCC4)CC3)nc(Nc3cnn(C)c3)nc2s1` [Compound I-58, 2-(methyl-d3)-N5-(1-methyl-1H-pyrazol-4-yl)-N7-((1r,4r)-4-morpholinocyclohexyl)thiazolo[5,4-d]pyrimidine-5,7-diamine] displayed an IC50 of at most 1000 nM.

On to `Cc1nc2c(N[C@H]3CC[C@H](N(C)C)CC3)ncnc2s1` [Compound I-4, (1r,4r)-N1,N1-dimethyl-N4-(2-methylthiazolo[5,4-d]pyrimidin-7-yl)cyclo-hexane-1,4-diamine], for which the IC50 is 1000 to 5000 nM.

Compound `Cn1cc(Nc2nc(N[C@H]3CC[C@H](N4CCOCC4)CC3)c3nc(C(C)(F)F)sc3n2)cn1` [Compound I-48, 2-(1,1-difluoroethyl)-N5-(1-methyl-1H-pyrazol-4-yl)-N7-((1r,4r)-4-morpholinocyclohexyl)thiazolo[5,4-d]pyrimidine-5,7-diamine] yielded an IC50 of at most 1000 nM.

For the compound `CC(C)n1cc(Nc2nc(N[C@H]3CC[C@H](N4CCOCC4)CC3)c3ncsc3n2)cn1` [Compound I-53, N5-(1-isopropyl-1H-pyrazol-4-yl)-N7-((1r,4r)-4-morpholino-cyclohexyl)thiazolo[5,4-d]pyrimidine-5,7-diamine], the IC50 is at most 1000 nM.

Consider `Cc1nc2c(N[C@H]3CC[C@H](N4CCOCC4)CC3)nc(N)nc2s1` [Compound I-43, 2-methyl-N7-((1r,4r)-4-morpholinocyclo-hexyl)thiazolo[5,4-d]pyrimidine-5,7-diamine], for which the IC50 is at least 5000 nM.

`Cn1cc(Nc2nc(N[C@H]3CC[C@H](N4CCOCC4)CC3)c3nc(C4CC4)sc3n2)cn1` [Compound I-49, 2-cyclopropyl-N5-(1-methyl-1H-pyrazol-4-yl)-N7-((1r,4r)-4-morpholinocyclohexyl)thiazolo[5,4-d]pyrimidine-5,7-diamine] registered an IC50 of at most 1000 nM.

`c1nc2c(N[C@H]3CC[C@H](N4CCOCC4)CC3)nc(Nc3cnn(CC4CCOCC4)c3)nc2s1` [Compound I-52, N7-((1r,4r)-4-morpholinocyclohexyl)-N5-(1-((tetrahydro-2H-pyran-4-yl)methyl)-1H-pyrazol-4-yl)thiazolo[5,4-d]pyrimidine-5,7-diamine] had an IC50 of at most 1000 nM.

For the origin of these results see patent US9518065B2, “IRAK inhibitors and uses thereof” (NIMBUS IRIS, INC., priority 2013, dated 2016).
